A short description of series [1]: Selectivity for human adenosine A2A receptor over adenosine A1 receptor.
Series [2] deals with Adenosine receptor A2a (Homo sapiens, UniProt P29274). Nature of the series: Displacement of [3H]SCH58261 from human recombinant A2A receptor expressed in HEK293 cells. It is filed as cell-based.
Series [3] in a line: Metabolic stability in rat liver microsomes assessed as compound remaining after 30 mins. The series is classed as ADME, Microsome. The note with it: read-out: Stability.
Series [4] in a line: Metabolic stability in human liver microsomes assessed as compound remaining after 30 mins. As to conditions: read-out: Stability. It is filed as ADME, Microsome.
In series [5] the target is Adenosine receptor A2a (Rattus norvegicus, UniProt P30543). Briefly: Antagonist activity at rat A2A receptor by cAMP functional assay.
Series [6] is described as follows: Plasma concentration in rat at 30 mg/kg, po after 1 hr. Further details: dose 30 mg/kg, route oral. The series is classed as ADME, organism-based.
Series [7] in a line: Ratio of drug level in brain to plasma of rat at 30 mg/kg, po after 1 hr. Further details: dose 30 mg/kg, route oral. As to conditions: read-out: BPR. It is filed as ADME, organism-based.
Series [8] is described as follows: Ratio of drug level in brain to plasma of rat at 30 mg/kg, po after 4 hrs. Further details: dose 30 mg/kg, route oral. The note with it: read-out: BPR. The series is classed as ADME, organism-based.
The nature of series [9]: Plasma concentration in rat at 30 mg/kg, po after 4 hrs. Set-up: dose 30 mg/kg, route oral. It is filed as ADME, organism-based.
Series [10] can be described thus: Drug level in rat brain at 30 mg/kg, po after 4 hrs. The series is classed as ADME, organism-based. Set-up: dose 30 mg/kg, route oral. As to conditions: read-out: Drug uptake.
Series [11] is described as follows: Drug level in rat brain at 30 mg/kg, po after 1 hr. It is filed as ADME, organism-based. Further details: dose 30 mg/kg, route oral. As to conditions: read-out: Drug uptake.

Sequence of Adenosine receptor A2a (Rattus norvegicus, UniProt P30543) (P30543 whole entry): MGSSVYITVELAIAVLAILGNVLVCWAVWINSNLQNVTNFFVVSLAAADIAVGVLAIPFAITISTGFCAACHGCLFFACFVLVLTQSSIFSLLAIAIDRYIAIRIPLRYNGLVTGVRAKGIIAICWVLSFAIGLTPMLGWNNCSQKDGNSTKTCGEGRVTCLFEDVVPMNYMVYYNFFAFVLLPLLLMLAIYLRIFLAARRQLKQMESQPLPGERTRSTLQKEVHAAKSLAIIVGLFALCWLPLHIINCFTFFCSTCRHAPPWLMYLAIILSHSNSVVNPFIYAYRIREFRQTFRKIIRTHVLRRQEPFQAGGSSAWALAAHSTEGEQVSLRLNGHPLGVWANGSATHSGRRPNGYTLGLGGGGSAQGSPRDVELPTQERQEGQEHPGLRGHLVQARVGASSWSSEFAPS
Sequence of Adenosine receptor A2a (Homo sapiens, UniProt P29274) (P29274 whole entry): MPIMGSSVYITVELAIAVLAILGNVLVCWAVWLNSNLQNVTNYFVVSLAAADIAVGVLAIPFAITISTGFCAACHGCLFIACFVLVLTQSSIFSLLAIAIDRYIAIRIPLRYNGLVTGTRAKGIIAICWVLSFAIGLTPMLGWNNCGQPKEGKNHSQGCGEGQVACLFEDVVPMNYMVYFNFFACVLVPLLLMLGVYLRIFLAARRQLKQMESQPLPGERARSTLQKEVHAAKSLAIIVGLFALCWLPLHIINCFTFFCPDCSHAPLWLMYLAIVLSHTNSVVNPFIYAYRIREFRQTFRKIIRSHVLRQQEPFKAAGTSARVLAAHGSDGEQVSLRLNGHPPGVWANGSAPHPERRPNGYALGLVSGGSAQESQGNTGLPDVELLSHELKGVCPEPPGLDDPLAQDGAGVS

For the compound `CCOCCn1c(NC(=O)c2cccc(C#N)c2)nc2cc(C(=O)N3CCOCC3)cnc21`, the Ratio in [1] was 1.8. Moreover, the Ki on Adenosine receptor A2a [2] was 3.3 µM.
`CCCCNC(=O)c1cnc2c(c1)nc(NC(=O)c1cccc(C#N)c1)n2CCCOC`: the remaining at 0.5 h in series [3] was 73%; in series [4], 95%. Besides, at Adenosine receptor A2a [2], the inhibition constant (Ki) worked out at 0.04 µM.
With `COc1ccc(Cn2c(NC(=O)c3cccc(C#N)c3)nc3cc(C(=O)N4CCCCC4)cnc32)cc1`, the Ratio in series [1] worked out at 7. Further, the Ki at Adenosine receptor A2a [2] came out at 1.22 µM.
On to `CCN(CC)C(=O)c1cnc2c(c1)nc(NC(=O)c1cccc(C#N)c1)n2CCCOC`, for which the Ki amounted to 0.059 µM on Adenosine receptor A2a [5] and 0.016 µM at Adenosine receptor A2a [2].
For the compound `COCCCn1c(NC(=O)c2cccc(C#N)c2)nc2cc(C(=O)N(C)C)cnc21`, the Ki at Adenosine receptor A2a [2] was 0.123 µM.
Take `COCCCn1c(NC(=O)c2ccc(C#N)cc2)nc2cc(C(=O)NCc3cccc(OC)c3)ccc21`: on Adenosine receptor A2a [2], the Ki is 1.67 µM.
For `N#Cc1cccc(C(=O)Nc2nc3cc(C(=O)N4CCCCC4)cnc3n2Cc2ccc(F)cc2)c1`, the Ratio in [1] is 3. Further, the inhibition constant Ki on Adenosine receptor A2a [2] was 2.59 µM.
Consider `CCN(C)C(=O)c1cnc2c(c1)nc(NC(=O)c1cccc(C#N)c1)n2CCCOC`, for which the inhibition constant Ki was 0.024 µM at Adenosine receptor A2a [5] and 0.025 µM on Adenosine receptor A2a [2]. Also, the concentration at 1 h came to 4360 ng/mL in [6] and 480 ng/g in series [11]. Besides, the Kp at 1 h in series [7] amounted to 0.11. In addition, in [8], the Kp at 4 h worked out at 0.09. For the same compound, the concentration at 4 h in [9] was determined as 2290 ng/mL; in series [10], 210 ng/g.
`COCCCn1c(NC(=O)c2cccc(C#N)c2)nc2cc(C(=O)NCc3cccc(OC)c3)ccc21`: the inhibition constant (Ki) on Adenosine receptor A2a [2] was 0.046 µM.
Turning to `COCCCn1c(NC(=O)c2cccc(C#N)c2)nc2cc(C(=O)N3CCCCC3)ccc21`, the remaining at 0.5 h is 16% in series [3] and 67% in series [4]. In addition, the Ki on Adenosine receptor A2a [2] amounted to 0.048 µM.
Turning to `COCCCn1c(NC(=O)c2cccc(C#N)c2)nc2ccc(C(=O)N3CCCCC3)cc21`, the Ki turned out to be 0.085 µM on Adenosine receptor A2a [5] and 0.017 µM at Adenosine receptor A2a [2]. Further, the remaining at 0.5 h in series [3] was found to be 12%; in [4], 19%. Besides, the Ratio in series [1] was found to be 131.
With `CC(=O)NCCn1c(NC(=O)c2cccc(C#N)c2)nc2cc(C(=O)N3CCCCC3)cnc21`, the Ratio in series [1] was > 46. Moreover, the Ki at Adenosine receptor A2a [2] is 0.037 µM.
Regarding `COCCCn1c(NC(=O)c2cccc(C(F)(F)F)c2)nc2cc(C(=O)NCc3cccc(OC)c3)ccc21`, the Ki on Adenosine receptor A2a [2] was > 10 µM.
Consider `CC(C)OCCCn1c(NC(=O)c2cccc(C#N)c2)nc2cc(C(=O)N3CCOCC3)cnc21`, for which, at Adenosine receptor A2a [2], the Ki is > 10 µM.
With `COCCCn1c(NC(=O)c2cccc(C#N)c2)nc2cc(C(=O)N3CCOCC3)cnc21`, in [1], the Ratio stood at 61. Further, on Adenosine receptor A2a [2], the Ki was found to be 0.092 µM.
Regarding `CCCCNC(=O)c1ccc2c(c1)nc(NC(=O)c1cccc(C#N)c1)n2CCCOC`, the remaining at 0.5 h in [3] came to 38%; in [4] it was 27%. Also, the Ki on Adenosine receptor A2a [2] stood at 0.048 µM.
In the case of `N#Cc1cccc(C(=O)Nc2nc3cc(C(=O)N4CCCCC4)cnc3n2Cc2cccnc2)c1`, in [1], the Ratio was determined as 4. For the same compound, the Ki on Adenosine receptor A2a [2] stood at 0.233 µM.
The corresponding values for `CCOCCCn1c(NC(=O)c2cccc(C#N)c2)nc2cc(C(=O)N3CCOCC3)cnc21` are 9 and 1.1 µM.
For `CCN(CC)C(=O)c1ccc2nc(NC(=O)c3cccc(C#N)c3)n(CCCOC)c2c1`, the inhibition constant (Ki) on Adenosine receptor A2a [5] came to 0.016 µM; at Adenosine receptor A2a [2], 0.0031 µM. Moreover, the remaining at 0.5 h came out at 19% in series [3] and 36% in [4]. For the same compound, the Ratio in [1] was determined as 183.
For `Cn1c(NC(=O)c2cccc(C#N)c2)nc2cc(C(=O)N3CCCCC3)cnc21`, in series [1], the Ratio was found to be 22. Moreover, the Ki on Adenosine receptor A2a [2] was found to be 0.147 µM.
For `N#Cc1cccc(C(=O)Nc2nc3cc(C(=O)N4CCCCC4)cnc3n2CCCO)c1`, in that order: 10 and 0.051 µM.
As to `COCCCn1c(NC(=O)c2cccc(OC)c2)nc2cc(C(=O)NCc3cccc(OC)c3)ccc21`, the Ki on Adenosine receptor A2a [2] is 2.38 µM.
`COCCCn1c(NC(=O)c2cccc(F)c2)nc2cc(C(=O)NCc3cccc(OC)c3)ccc21`: the inhibition constant (Ki) on Adenosine receptor A2a [2] was 0.21 µM.
As to `N#Cc1cccc(C(=O)Nc2nc3cc(C(=O)N4CCCCC4)cnc3n2Cc2ccncc2)c1`, in [1], the Ratio came out at 39. Moreover, the inhibition constant (Ki) on Adenosine receptor A2a [2] was found to be 0.039 µM.
Turning to `COc1cccc(-n2c(NC(=O)c3cccc(C#N)c3)nc3cc(C(=O)N4CCCCC4)cnc32)c1`, in [1], the Ratio stood at 2. The inhibition constant (Ki) on Adenosine receptor A2a [2] worked out at 0.325 µM.
The corresponding values for `CCCCCn1c(NC(=O)c2cccc(C#N)c2)nc2cc(C(=O)N3CCCCC3)cnc21` are 3 and 0.904 µM.
Turning to `COCCCn1c(NC(=O)c2cccc(C#N)c2)nc2cc(C(N)=O)cnc21`, the inhibition constant (Ki) on Adenosine receptor A2a [2] was found to be 2.43 µM.
Still for that read-out and setting: the same measure for `COCCCn1c(NC(=O)c2ccccc2Cl)nc2cc(C(=O)NCc3cccc(OC)c3)ccc21`: 4.71 µM.
Regarding `N#Cc1cccc(C(=O)Nc2nc3cc(C(=O)N4CCCCC4)cnc3n2C2CCOCC2)c1`, the Ratio in series [1] worked out at 10. Besides, the inhibition constant Ki at Adenosine receptor A2a [2] worked out at 0.179 µM.
For the compound `COCCCn1c(NC(=O)c2cccc(Cl)c2)nc2cc(C(=O)NCc3cccc(OC)c3)ccc21`, the Ki at Adenosine receptor A2a [2] is 0.439 µM.
On the same count and under the same terms, in the case of `COCCCn1c(N)nc2cc(C(=O)NCc3cccc(OC)c3)ccc21` it was 6.77 µM.
With `COCCCn1c(NC(=O)c2cccc(C#N)c2)nc2cc(C(=O)N(C)C(C)C)cnc21`, the values for the Ki at Adenosine receptor A2a [5] and at Adenosine receptor A2a [2] were 0.012 µM and 0.013 µM, respectively.
As to `COCCCn1c(NC(=O)c2cccc(C#N)c2)nc2cc(C(=O)N3CCCCC3)cnc21`, the results for the remaining at 0.5 h in series [3] and in series [4] were 36% and 90%, respectively. For the same compound, at Adenosine receptor A2a [2], the Ki was 0.0096 µM.
For `CCN(C)C(=O)c1ccc2nc(NC(=O)c3cccc(C#N)c3)n(CCCOC)c2n1`, the inhibition constant (Ki) on Adenosine receptor A2a [5] turned out to be 0.023 µM; on Adenosine receptor A2a [2] it was 0.012 µM. For the same compound, the remaining at 0.5 h in series [3] and in series [4] was 52% each time. In addition, the results for the concentration at 1 h in series [6] and in series [11] were 4630 ng/mL and 1050 ng/g, respectively. In addition, in series [1], the Ratio is 80. The Kp at 1 h in series [7] was 0.23. The Kp at 4 h in series [8] was determined as 0.19. In addition, the values for the concentration at 4 h in series [9] and in [10] were 2380 ng/mL and 450 ng/g, respectively.
With `COCCCn1c(NC(=O)c2cccc(C#N)c2)nc2ccc(C(=O)N(C)C(C)C)nc21`, the inhibition constant (Ki) at Adenosine receptor A2a [5] is 0.0043 µM; on Adenosine receptor A2a [2], 0.0025 µM. Besides, the values for the remaining at 0.5 h in [3] and in [4] were 14% and 25%, respectively. Also, the Ratio in series [1] stood at 88.

As usually defined, the Ki is the equilibrium dissociation constant of an inhibitor or competing ligand from its target.

Source of the values: ChEMBL document CHEMBL1268900, “Discovery of 2-aminoimidazopyridine adenosine A(2A) receptor antagonists” (Bioorg Med Chem Lett, 2010).
